The text below walks through data of US20240285808A1, “MOLECULAR PROBES FOR IN VIVO DETECTION OF ALDEHYDES” (The General Hospital Corporation, priority 2021, published 2024).

A short description of data set [1]: Kinetics of hydrolysis of butyraldehyde condensation products. Type of data set: physicochemical. How it is done: Quantitative Measurements of Kinetics of Hydrolysis:
One mM solutions of Mn-15-Ald, Mn-16-Ald and Mn-17-Ald (where Mn-Ald refers to the reaction product with either Mn-15, Mn-16, or Mn-17) were prepared by the following procedure: 1 mM (1 mL) of Mn-15, Mn-16 or Mn-17 were prepared in PBS (pH 7.4) followed by addition of butyraldehyde (14.4 mg, […]). The mixture was rocked gently under room temperature for 10 min and then freeze-dried for 12 hours. Then, the obtained white solid was redissolved in 1 mL water.
The HPLC trace of each butyraldehyde reaction product was measured by Method 25 (Mn-15-Ald) and Method 26 (Mn-16-Ald, Mn-17-Ald). Then, a 37% stock solution of formaldehyde was added to give a final formaldehyde concentration of 200 mM.
The hydrolysis of the hydrazone/oxime is reversible. An excess of formaldehyde was added to trap the liberated nitrogen base and thereby push the hydrolysis reaction to completion, allowing the hydrolysis reaction to be monitored without interference from the reverse reaction. So, the kinetics for hydrolysis of Mn-15-Ald, Mn-16-Ald and Mn-17-Ald follows the rate law.
where Y is the % hydrolysis, t is time, kobs,H is the first-order rate constant, and Ymax is the % hydrolysis at t=∞. Kinetic traces were obtained in triplicate, and half-lives were calculated with equation 20: […]
The novel Mn-PC2A derivatives (FIG. 1A) were synthesized in 6 steps from the pyclen macrocycle. Hydrazone formation kinetics with butyraldehyde as a model compound were measured by UV spectroscopy at 220 nm, 25° C., pH 7.4, PBS. Hydrazone hydrolysis kinetics were measured by HPLC with UV detection at 220 nm using excess formaldehyde to trap the liberated hydrazine and prevent the reverse reaction. Allysine-modified BSA (BSA-Ald, 17.4 mg/mL, […] aldehyde) as a soluble model protein or BSA (17.3 mg/mL, 16.8 μM aldehyde) and Mn-15 or Mn-17 (50-200 μM) were incubated at 37° C. for 3 hours, and 1/T1 was measured at 1.4 T, 37° C., and plotted vs concentration to obtain relaxivity. The protein bound probe was isolated by ultrafiltration and the relaxivity of the protein-bound fraction measured. All Mn concentrations were measured by ICP-MS. Liver fibrosis was induced in male C57BL/6 mice by oral gavage with CCl4 for 12 weeks, 2-3 times per week, while control mice received vehicle (olive oil). 3D FLASH images (TR/TE/FA=15 ms/2 ms/30°, 0.25 mm^3 spatial resolution) were acquired on a 4.7 T Bruker Biospec prior to and dynamically for 40 min p.i. of 100 μmol/kg Mn-15. Liver to muscle contrast to noise was calculated as CNR=(SILiver−SIMuscle)/SDAir where SI=signal intensity and SD=standard deviation in SI.

Data set [2] is described as follows: Biodistribution of ^nat/52Mn-based probes in naïve mice. Type of data set: in vivo, mouse. As to conditions: 24 h post injection. As to the method: Example 32. Radiolabeling of Compounds 15-18 with ^52Mn and Preparation of ^52/natMn Complex
^52MnCl2 (5 mCi) was received from the cyclotron facility at the Alabama at Birmingham and diluted to 500 μL with 0.1 M HCl. Solution of […] (50 μL, 1.0 mg in 1 mL of 1.5 M NaOAc buffer, pH 4.5) was mixed with 50 μL of ^52MnCl2. The reaction mixture was kept at room temperature for 15 min and diluted with 200 μL of sterile PBS. The injected dose of ^52/natMn complex was obtained by mixing solution of ^52Mn labeled Compound 15-18 with stock solution of ^natMn labeled Compound 15-18 (^natMn final concentration: 30 mM).
Bleomycin-injured mice at 14 days after injury were sedated and then injected with Compound 19, Compound 20, Gd-CHyd (Akam, E. A., et al. Improving the reactivity of hydrazine-bearing MRI probes for in vivo imaging of lung fibrogenesis. Chemical Science 11, 224-231 (2020)) formulated to contain an equal concentration of Eu-DOTA as a non-binding control probe. Animals were then euthanized at 30 minutes after injection. The lungs were harvested separately, along with blood, tail and liver. Each sample was analyzed by ICP-MS for gadolinium and europium content, and the lungs were also assessed for hydroxyproline content. Selectivity is reported as the ratio of Gd to Eu. All animals were dosed via tail vein injection at 100 nmol/g body weight from 30 mM solutions of gadolinium probes with 30 mM Eu-DOTA as determined by ICP-MS. For PET probes, Compounds 1-8 were radiolabeled with either ^68Ga or ^64Cu and the dose was delivered as a bolus injection through tail vein. Animals were euthanized 90 min post injection and their organs and tissues were harvested and counted using a gamma counter. For an imaging study with a PET tracer, animals were injected inside PET/MRI scanner and scanned dynamically for 60 min under anesthesia. The animals were euthanized 90 min post injection and their organs and tissues were counted using a gamma counter. The biodistribution of Mn-15, Mn-16, Mn-17, and Mn-18 was determined by injecting a mixture of ^52/nat complex into naïve mice and activity in each tissue were measured 24 hours post injection.

The mark [3] stands for this setting: butyraldehyde reaction product, formaldehyde 200 mM as trap.

Read-outs that look alike come from different tables or passages of the source.

As to `NNC(CCC(=O)NCCCN1CCN(CC(=O)[O-])Cc2cccc(n2)CN(CC(=O)[O-])CC1)C(=O)O.[Mn+2]` (stereo not shown) [Mn-15], in data set [1], the hydrolysis rate constant worked out at 0.00103 s⁻¹ and the “times higher hydrolysis rate constant compared to Mn-17” value is 2 fold. In addition, the hydrolysis rate constant in data set [1] (setting [3]) is recorded as 1.03 ± 0.15 ×10^−3 s^−1. Moreover, in data set [2], the “Biodistribution, Blood” value is reported as 0.0018 % ID/g; the “Biodistribution, Bone” value turned out to be 0.0385 % ID/g; the “Biodistribution, Brain” value is 0.0156 % ID/g; the “Biodistribution, Heart” value turned out to be 0.0532 % ID/g. In data set [2], the “Biodistribution, Intestine” value amounted to 0.0665 % ID/g; the “Biodistribution, Kidney” value is listed as 0.7021 % ID/g; the “Biodistribution, Liver” value turned out to be 0.2186 % ID/g; the “Biodistribution, Lung” value was determined as 0.1312 % ID/g. Also, in data set [2], the “Biodistribution, Muscle” value is given as 0.0154 % ID/g; the “Biodistribution, Skin” value worked out at 0.0719 % ID/g; the “Biodistribution, Spleen” value was determined as 0.0843 % ID/g; the “Biodistribution, Stomach” value is on record as 0.0759 % ID/g.
On to `NOC(CCC(=O)NCCCN1CCN(CC(=O)[O-])Cc2cccc(n2)CN(CC(=O)[O-])CC1)C(=O)O.[Mn+2]` (stereo not shown) [Mn-16], for which the hydrolysis rate constant in data set [1] was 7.9e-07 s⁻¹. Also, the hydrolysis rate constant in data set [1] (setting [3]) is recorded as 0.79 ± 0.03 ×10^−6 s^−1. Moreover, in data set [2], the “Biodistribution, Blood” value stood at 0.0051 % ID/g; the “Biodistribution, Bone” value stood at 0.1378 % ID/g; the “Biodistribution, Brain” value was determined as 0.0275 % ID/g; the “Biodistribution, Heart” value is recorded as 0.1579 % ID/g. Besides, in data set [2], the “Biodistribution, Intestine” value was 0.1330 % ID/g; the “Biodistribution, Kidney” value came to 0.9664 % ID/g; the “Biodistribution, Liver” value is given as 0.3950 % ID/g; the “Biodistribution, Lung” value came out at 0.4469 % ID/g. In data set [2], the “Biodistribution, Muscle” value is 0.0669 % ID/g; the “Biodistribution, Skin” value is on record as 0.9457 % ID/g; the “Biodistribution, Spleen” value amounted to 0.1978 % ID/g; the “Biodistribution, Stomach” value is 0.1638 % ID/g.
`NNCC(=O)NCCCN1CCN(CC(=O)[O-])Cc2cccc(n2)CN(CC(=O)[O-])CC1.[Mn+2]` [Mn-17] yielded a hydrolysis rate constant in data set [1] of 0.00041 s⁻¹. Also, the hydrolysis rate constant in data set [1] (setting [3]) is reported as 0.41 ± 0.01 ×10^−3 s^−1. For the same molecule, in data set [2], the “Biodistribution, Blood” value is on record as 0.0020 % ID/g; the “Biodistribution, Bone” value is given as 0.0414 % ID/g; the “Biodistribution, Brain” value amounted to 0.0170 % ID/g; the “Biodistribution, Heart” value is 0.0675 % ID/g. Further, in data set [2], the “Biodistribution, Intestine” value turned out to be 0.0556 % ID/g; the “Biodistribution, Kidney” value is 0.5387 % ID/g; the “Biodistribution, Liver” value came to 0.2125 % ID/g; the “Biodistribution, Lung” value is recorded as 0.1954 % ID/g. Further, in data set [2], the “Biodistribution, Muscle” value came to 0.0196 % ID/g; the “Biodistribution, Skin” value amounted to 0.0925 % ID/g; the “Biodistribution, Spleen” value worked out at 0.0965 % ID/g; the “Biodistribution, Stomach” value stood at 0.0681 % ID/g.
Consider `CN(C)C(CCC(=O)NCCCN1CCN(CC(=O)[O-])Cc2cccc(n2)CN(CC(=O)[O-])CC1)C(=O)O.[Mn+2]` (stereo not shown) [Mn-18], for which, in data set [2], the “Biodistribution, Blood” value stood at 0.0013 % ID/g; the “Biodistribution, Bone” value is 0.0227 % ID/g; the “Biodistribution, Brain” value turned out to be 0.0145 % ID/g; the “Biodistribution, Heart” value stood at 0.0364 % ID/g. Moreover, in data set [2], the “Biodistribution, Intestine” value is recorded as 0.0355 % ID/g; the “Biodistribution, Kidney” value stood at 0.5290 % ID/g; the “Biodistribution, Liver” value was found to be 0.1833 % ID/g; the “Biodistribution, Lung” value is given as 0.0599 % ID/g. Besides, in data set [2], the “Biodistribution, Muscle” value was determined as 0.0132 % ID/g; the “Biodistribution, Skin” value is 0.0243 % ID/g; the “Biodistribution, Spleen” value came out at 0.0616 % ID/g; the “Biodistribution, Stomach” value is listed as 0.0477 % ID/g.
